Source: patent US12303513B2, “Methods and compositions to treat cancer” (Children's Hospital Medical Center, priority 2016, dated 2025)
“Also recorded” adds a separate entry of the source.

Tests used:
[1] = test system: MSTO211H mesothelioma cells; assay: Cell growth, cell count with Countess II (FIGS. 14, 15); format: cell-based, human; conditions: 48 hours, dose-dependent, vs DMSO control
Protocol: FIG. 14. iMDK (#3) and its derivatives (A6, D9 and E6) inhibits growth of MSTO211H mesothelioma cells. MSTO211H mesothelioma cells were treated with iMDK (#3) or iMDK derivatives (A6, D9 or E6) at indicated different final concentrations.
FIG. 15. iMDK (#3) and its derivatives (F5, F6 and F7) inhibits growth of MSTO211H mesothelioma cells. MSTO211H mesothelioma cells were treated with iMDK (#3) or iMDK derivatives (F5, F6 or F7) at indicated different final concentrations.
(§1) Cell lines: The human malignant pulmonary mesothelioma cells MSTO-211H, H2452, H2052, H28 MESO-1 and MESO-4 were grown in RPMI 1640 supplemented with 10% heat-inactivated fetal bovine serum. The human pulmonary adenocarcinoma cells: H441 and the human embryonic kidney cells: HEK293 were grown in high glucose Dulbecco's modified Eagle supplemented with 10% heat-inactivated fetal bovine serum. All cell lines were cultured in 5% CO2 at 37° C.

H441 cells = assay: Cell viability / toxicity in H441 cells (FIGS. 18C, 19); format: cell-based, human; conditions: 10 μM, 3 days after treatment (not shown)
midkine protein = assay: Inhibition of midkine protein expression (Table, FIGS. 7-12); format: cell-based; conditions: for Activity on protein expression: 1 uM of compound
MESO4 mesothelioma cells = assay: Cell growth, cell count with Countess II (FIGS. 16, 17); format: cell-based, human; conditions: MESO4, 48 hours, dose-dependent, vs DMSO control
Protocol: FIG. 16. iMDK (#3) and its derivatives (A6, D9 and E6) inhibits growth of MESO4 mesothelioma cells. MESO4 mesothelioma cells were treated with iMDK (#3) or iMDK derivatives (A6, D9 or E6) at indicated different final concentrations.
FIG. 17. iMDK (#3) and its derivatives (F5, F6 and F7) inhibits growth of […] mesothelioma cells. MESO4 mesothelioma cells were treated with iMDK (#3) or iMDK derivatives (F5, F6 or F7) at indicated different final concentrations.
as §1

293 cells = assay: Cell viability, Wright-Giemsa staining (FIG. 18C), 293 cells; format: cell-based, human; conditions: 10 μM, 3 days after treatment
endogenous midkine = assay: Endogenous midkine expression in H441 cells by western blotting (FIG. 18A); format: cell-based, human; conditions: H441 lung adenocarcinoma cells, 10 μM, 24 hours
Protocol: FIG. 18. […] A. H441 lung adenocarcinoma cells were treated with iMDK and related compounds at a final concentration of 10 μM. Twenty-four hours after treatment, cells were harvest and protein expression was assessed using western blotting assay. […] B. Shown is structures of compounds #2 (also known as F6). #3 (also known as iMDK), #5, #7, and #8. C. […] DMSO was used as control.
as §1

H2052 mesothelioma cells = assay: Cell viability, trypan blue exclusion assay (FIG. 2), H2052; format: cell-based, human; conditions: H2052, 48 hours of treatment
Protocol: as §1, with “FIG. 2. iMDK suppressed cell viability of MDK expressing malignant pulmonary mesothelioma cells. […] Cell viability was assessed by trypan blue exclusion assay. Statistical significance was defined as p<0.01 (*). Cell” for “Cell”

MSTO-211H cells [2] = assay: Apoptosis by TUNEL staining (FIG. 4); format: cell-based, human; conditions: 48 h treatment, dose dependent
Protocol: Cells were treated for 48 h at a indicated concentration of iMDK then TUNEL staining was performed to detect apoptosis using the DeadEnd colorimetric TUNEL system (Promega, Madison, WI) according to the manufacturer's protocol. Statistical significance was defined as p<0.01 (*). Cell lines: The human malignant pulmonary mesothelioma cells MSTO-211H, H2452, H2052, H28 MESO-1 and MESO-4 were grown in RPMI 1640 supplemented with 10% heat-inactivated fetal bovine serum. The human pulmonary adenocarcinoma cells: H441 and the human embryonic kidney cells: HEK293 were grown in high glucose Dulbecco's modified Eagle supplemented with 10% heat-inactivated fetal bovine serum. All cell lines were cultured in 5% CO2 at 37° C.

[3] = test system: tumors derived from MSTO-211H cells; assay: Malignant pleural mesothelioma xenograft mouse model (FIG. 6); format: in vivo; conditions: i.p., compared to control (DMSO)
Source text: Eight mice were used in each group. Tumor growth is expressed as mean tumor volume; bars represent SD. Statistical significance was defined as p<0.05 (#)

[4] = test system: MSTO-211H mesothelioma cells; assay: Cell viability, trypan blue exclusion assay (FIG. 2), MSTO-211H; format: cell-based, human; conditions: 48 hours of treatment
Protocol: as §1, with “FIG. 2. iMDK suppressed cell viability of MDK expressing malignant pulmonary mesothelioma cells. […] Cell viability was assessed by trypan blue exclusion assay. Statistical significance was defined as p<0.01 (*). Cell” for “Cell”

[5] = test system: non-small cell lung cancer expressing MDK; conditions: previously reported; cited from earlier work
H2452 mesothelioma cells = assay: Cell viability, trypan blue exclusion assay (FIG. 2), H2452; format: cell-based, human; conditions: H2452, 48 hours of treatment
Protocol: as §1, with “FIG. 2. iMDK suppressed cell viability of MDK expressing malignant pulmonary mesothelioma cells. […] Cell viability was assessed by trypan blue exclusion assay. Statistical significance was defined as p<0.01 (*). Cell” for “Cell”

normal cells = conditions: previously reported; cited from earlier work
H28 mesothelioma cells = assay: Cell viability, trypan blue exclusion assay (FIG. 2), H28; format: cell-based, human; conditions: H28, 48 hours of treatment
Protocol: as §1, with “FIG. 2. iMDK suppressed cell viability of MDK expressing malignant pulmonary mesothelioma cells. […] Cell viability was assessed by trypan blue exclusion assay. Statistical significance was defined as p<0.01 (*). Cell” for “Cell”

[6] = test system: MDK expressing non-small cell lung cancer cells; conditions: previously reported; cited from earlier work
PI3 kinase/Akt pathway = conditions: previously reported; cited from earlier work
MSTO-211H cells [7] = assay: Colony formation, crystal violet staining (FIG. 3); format: cell-based, human; conditions: fourteen days after treatment
Protocol: as §1, with “Colony formation of MSTO-211H cells treated with iMDK. Fourteen days after the treatment, cells were fixed and stained with crystal violet. Representative images of experiments performed in triplicate are shown. Cell” for “Cell”

[8] = test system: MSTO-211H mesothelioma cells; assay: Growth inhibition by iMDK combined with ABT263 (FIG. 5); format: cell-based, human; conditions: 48 hours, ABT263 plus iMDK versus each drug alone
Protocol: as §1, with “FIG. 5. ABT263 enhanced iMDK-mediated suppression of cell proliferation in MSTO-211H mesothelioma cells. […] Cell” for “Cell”

| SMILES | growth of cells (number of cells) [1] | Concentration to inhibit midkine protein expression (midkine protein) | Activity on protein expression (midkine protein) | growth of cells (number of cells) (MESO4 mesothelioma cells) | also measured |
| --- | --- | --- | --- | --- | --- |
| O=c1oc2ccccc2cc1-c1cn2cc(Cc3ccc(Cl)cc3)sc2n1 [Compound 1] | significantly inhibited the growth | 1 µM | inhibits protein expression | significantly inhibited the growth | cell viability (H441 cells): inhibited cell viability; cell viability (293 cells): inhibited cell viability; endogenous midkine expression (endogenous midkine): suppressed endogenous midkine expression |
| O=c1oc2ccccc2cc1-c1cn2cc(Cc3ccc(F)cc3)sc2n1 [iMDK, 3-[2-(4-fluorobenzyl)imidazo[2,1-b][1,3]thiazol-6-yl]-2H-chromen-2-one] | significantly inhibited the growth | 0.1 µM | – | significantly inhibited the growth | growth inhibition (cell viability) (H2052 mesothelioma cells): Dose-dependent growth inhibition; apoptosis (TUNEL positive cells) (MSTO-211H cells [2]): induced apoptosis; also recorded: significantly increased; Volume of the tumors ([3]; iMDK 5 mg/kg): significantly reduced; Volume of the tumors ([3]; iMDK 9 mg/kg): significantly reduced; growth inhibition (cell viability) [4]: Dose-dependent growth inhibition; suppression of non-small cell lung cancer expressing MDK [5]: suppresses; growth inhibition (cell viability) (H2452 mesothelioma cells): Dose-dependent growth inhibition; cell viability (H441 cells): inhibited cell viability; harm to normal cells (normal cells): without harming; growth inhibition (cell viability) (H28 mesothelioma cells): Dose-dependent growth inhibition; apoptosis [6]: induces apoptosis; cell viability (293 cells): inhibited cell viability; PI3 kinase/Akt pathway (PI3 kinase/Akt pathway): inhibits; endogenous midkine expression (endogenous midkine): suppressed endogenous midkine expression; colony formation (MSTO-211H cells [7]): suppressed colony formation |
| O=c1oc2ccccc2cc1-c1cn2cc(Cc3ccc(C(F)(F)F)cc3)sc2n1 [Compound 9] | significantly inhibited the growth | 1 µM | inhibits protein expression | significantly inhibited the growth | – |
| O=c1oc2ccccc2cc1-c1cn2cc(Cc3ccccc3)sc2n1 [Compound 5] | significantly inhibited the growth | 10 µM | inhibits protein expression | significantly inhibited the growth | – |
| CC1(C)CCC(c2ccc(Cl)cc2)=C(CN2CCN(c3ccc(C(=O)NS(=O)(=O)c4ccc(N[C@H](CCN5CCOCC5)CSc5ccccc5)c(S(=O)(=O)C(F)(F)F)c4)cc3)CC2)C1 [ABT-263] | – | – | – | – | growth inhibition in combination with iMDK [8]: more effective than each drug alone; growth inhibition in combination with iMDK ([8]; listed as ABT263): enhanced growth inhibition |
| O=c1oc2ccccc2cc1-c1cn2cc(Cc3cccc(C(F)(F)F)c3)sc2n1 [Compound 7] | – | 0.1 µM | – | – | – |
| COc1ccc(-c2cn3cc(Cc4ccc(F)cc4)sc3n2)cc1 [Compound 10] | significantly inhibited the growth | 10 µM | inhibits protein expression | significantly inhibited the growth | – |
| COc1ccc(Cc2cn3cc(-c4cc5ccccc5oc4=O)nc3s2)cc1 [Compound 6] | significantly inhibited the growth | 1 µM | inhibits protein expression | significantly inhibited the growth | – |
| Cc1ccc(Cc2cn3cc(-c4cc5ccccc5oc4=O)nc3s2)cc1 [Compound 8] | significantly inhibited the growth | 1 µM | inhibits protein expression | significantly inhibited the growth | – |
